Reference: ChEMBL document CHEMBL3751822, “C1C2-linker substituted 1,5-naphthyridine analogues of oxabicyclooctane-linked NBTIs as broad-spectrum antibacterial agents (part 7)” (Medchemcomm, 2015)
Values after ≈ are worked out from the molar mass of the structure shown.

Assays:
Staphylococcus aureus [1] = experiment: Antibacterial activity against Staphylococcus aureus infected in iv dosed mouse; assay type: functional; details: Staphylococcus aureus, iv; read-out: ED50
Staphylococcus aureus [2] = experiment: Antibacterial activity against Staphylococcus aureus infected in po dosed mouse; assay type: functional; details: Staphylococcus aureus, po; read-out: ED50
Staphylococcus aureus [3] = experiment: Ratio of MIC for quinolone-resistant Staphylococcus aureus MS5935 to MIC for quinolone-sensitive Staphylococcus aureus MS5935; assay type: functional
Streptococcus pneumoniae = experiment: Antibacterial activity against Streptococcus pneumoniae IID553 by micro-broth dilution method; assay type: functional; details: Streptococcus pneumoniae, IID553; read-out: MIC
Enterococcus faecium = experiment: Antibacterial activity against Enterococcus faecium VanA by micro-broth dilution method; assay type: functional; details: Enterococcus faecium, VanA; read-out: MIC
Staphylococcus aureus [4] = experiment: Antibacterial activity against methicillin resistant Staphylococcus aureus OIT971 by micro-broth dilution method; assay type: functional; details: Staphylococcus aureus, OIT971; read-out: MIC
Pseudomonas aeruginosa = experiment: Antibacterial activity against Pseudomonas aeruginosa PAO1 by micro-broth dilution method; assay type: functional; details: Pseudomonas aeruginosa, PAO1; read-out: MIC
Acinetobacter baumannii = experiment: Antibacterial activity against Acinetobacter baumannii IID876 by micro-broth dilution method; assay type: functional; details: Acinetobacter baumannii, IID876; read-out: MIC
Escherichia coli = experiment: Antibacterial activity against Escherichia coli ATCC 25922 by micro-broth dilution method; assay type: functional; details: Escherichia coli, ATCC 25922; read-out: MIC
[5] = molecular target: T1, Voltage-gated inwardly rectifying potassium channel KCNH2 (Homo sapiens, UniProt Q12809); experiment: Displacement of MK499 from human ERG
T1 sequence (Q12809 whole entry): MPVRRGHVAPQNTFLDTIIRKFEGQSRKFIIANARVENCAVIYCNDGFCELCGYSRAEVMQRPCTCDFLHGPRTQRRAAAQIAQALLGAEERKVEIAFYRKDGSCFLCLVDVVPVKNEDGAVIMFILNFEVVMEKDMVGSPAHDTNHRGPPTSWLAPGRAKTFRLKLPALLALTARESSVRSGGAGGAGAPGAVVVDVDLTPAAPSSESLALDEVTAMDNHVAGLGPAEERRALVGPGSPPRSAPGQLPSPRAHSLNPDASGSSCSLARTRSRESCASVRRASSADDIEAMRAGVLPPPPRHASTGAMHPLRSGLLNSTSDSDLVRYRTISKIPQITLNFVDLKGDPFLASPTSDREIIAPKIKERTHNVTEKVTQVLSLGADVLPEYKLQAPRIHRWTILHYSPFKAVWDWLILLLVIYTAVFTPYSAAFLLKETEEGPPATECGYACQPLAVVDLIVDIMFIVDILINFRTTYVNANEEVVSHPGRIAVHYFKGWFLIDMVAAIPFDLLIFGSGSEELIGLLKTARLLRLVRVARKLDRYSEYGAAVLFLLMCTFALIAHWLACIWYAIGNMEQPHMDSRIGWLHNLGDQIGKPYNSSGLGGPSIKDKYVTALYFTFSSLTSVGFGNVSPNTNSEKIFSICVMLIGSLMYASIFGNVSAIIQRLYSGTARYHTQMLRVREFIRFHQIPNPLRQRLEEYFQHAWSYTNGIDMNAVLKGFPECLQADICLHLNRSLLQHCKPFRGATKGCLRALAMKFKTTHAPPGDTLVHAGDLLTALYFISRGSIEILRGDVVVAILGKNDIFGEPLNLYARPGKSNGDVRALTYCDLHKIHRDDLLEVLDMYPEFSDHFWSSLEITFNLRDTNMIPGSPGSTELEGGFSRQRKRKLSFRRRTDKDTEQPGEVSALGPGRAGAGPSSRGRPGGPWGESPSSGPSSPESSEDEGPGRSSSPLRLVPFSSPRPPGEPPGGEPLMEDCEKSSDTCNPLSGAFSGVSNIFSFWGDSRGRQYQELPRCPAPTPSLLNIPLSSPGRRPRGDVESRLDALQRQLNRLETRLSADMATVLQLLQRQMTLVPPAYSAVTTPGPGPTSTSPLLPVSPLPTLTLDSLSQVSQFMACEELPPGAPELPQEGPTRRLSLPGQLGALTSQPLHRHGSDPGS

Staphylococcus aureus [6] = experiment: Antibacterial activity against Staphylococcus aureus Smith by micro-broth dilution method; assay type: functional; details: Staphylococcus aureus, Smith; read-out: MIC
[7] = molecular target: T1, Voltage-gated inwardly rectifying potassium channel KCNH2; experiment: Inhibition of human ERG expressed in CHO cells by patch express assay; assay type: cell-based

SMILES	ED50 (Staphylococcus aureus [1]) [mg/kg]	ED50 (Staphylococcus aureus [2]) [mg/kg]	Ratio (Staphylococcus aureus [3])	MIC (Streptococcus pneumoniae) [µg/mL]	MIC (Enterococcus faecium) [µg/mL]	MIC (Staphylococcus aureus [4]) [µg/mL]	MIC (Pseudomonas aeruginosa) [µg/mL]	MIC (Acinetobacter baumannii) [µg/mL]	MIC (Escherichia coli) [µg/mL]	IC50 [5] [nM]	MIC (Staphylococcus aureus [6]) [µg/mL]	IC50 [7] [nM]
COc1ccc2ncc(F)c(C[C@H](O)C34CCC(NCc5ccc6c(n5)NC(=O)CO6)(CC3)CO4)c2n1.Cl	2.5	2.2	–	–	–	–	–	–	–	–	–	–
COc1ccc2ncc(F)c(CCC34CCC(NCc5ccc6c(n5)NC(=O)CO6)(CC3)CO4)c2n1	–	–	2	–	–	–	–	–	–	–	–	–
CO/N=C(/Cc1c(F)cnc2ccc(OC)nc12)C12CCC(NCc3ccc4c(n3)NC(=O)CO4)(CC1)CO2	–	–	<4	16 (≈ 29.8 µM)	16 (≈ 29.8 µM)	16 (≈ 29.8 µM)	16 (≈ 29.8 µM)	16 (≈ 29.8 µM)	16 (≈ 29.8 µM)	2500	16 (≈ 29.8 µM)	–
COc1ccc2ncc(F)c(C[C@H](OC)C34CCC(NCc5ccc6c(n5)NC(=O)CO6)(CC3)CO4)c2n1	–	–	–	2 (≈ 3.82 µM)	8 (≈ 15.3 µM)	0.25 (≈ 0.477 µM)	16 (≈ 30.6 µM)	8 (≈ 15.3 µM)	16 (≈ 30.6 µM)	–	0.25 (≈ 0.477 µM)	–
COc1ccc2ncc(F)c(CC(=O)C34CCC(NCc5ccc6c(n5)NC(=O)CO6)(CC3)CO4)c2n1.Cl	5.1	6.4	–	–	–	–	–	–	–	–	–	–
COc1ccc2ncc(F)c(C/C(=N\O)C34CCC(NCc5ccc6c(n5)NC(=O)CO6)(CC3)CO4)c2n1	–	–	<4	2 (≈ 3.83 µM)	2 (≈ 3.83 µM)	0.5 (≈ 0.957 µM)	2 (≈ 3.83 µM)	2 (≈ 3.83 µM)	2 (≈ 3.83 µM)	1600	0.5 (≈ 0.957 µM)	–
COc1ccc2ncc(F)c([C@@H](O)[C@H](O)C34CCC(NCc5ccc6c(n5)NC(=O)CO6)(CC3)CO4)c2n1	–	–	<4	2 (≈ 3.81 µM)	8 (≈ 15.2 µM)	0.25 (≈ 0.476 µM)	32 (≈ 60.9 µM)	2 (≈ 3.81 µM)	16 (≈ 30.4 µM)	60000	0.25 (≈ 0.476 µM)	–
COc1ccc2ncc(F)c(C/C(=N/O)C34CCC(NCc5ccc6c(n5)NC(=O)CO6)(CC3)CO4)c2n1	–	–	<4	16 (≈ 30.6 µM)	16 (≈ 30.6 µM)	16 (≈ 30.6 µM)	16 (≈ 30.6 µM)	16 (≈ 30.6 µM)	16 (≈ 30.6 µM)	5400	16 (≈ 30.6 µM)	–
COc1ccc2ncc(F)c(C(=O)CC34CCC(NCc5ccc6c(n5)NC(=O)CO6)(CC3)CO4)c2n1	–	–	<4	0.25 (≈ 0.493 µM)	2 (≈ 3.94 µM)	0.06 (≈ 0.118 µM)	32 (≈ 63.1 µM)	1 (≈ 1.97 µM)	4 (≈ 7.88 µM)	1200	0.06 (≈ 0.118 µM)	3700
COc1ccc2ncc(F)c(CC(=O)C34CCC(NCc5ccc6c(n5)NC(=O)CO6)(CC3)CO4)c2n1	–	–	–	0.25 (≈ 0.493 µM)	4 (≈ 7.88 µM)	0.13 (≈ 0.256 µM)	16 (≈ 31.5 µM)	2 (≈ 3.94 µM)	16 (≈ 31.5 µM)	–	0.13 (≈ 0.256 µM)	–
COc1ccc2ncc(F)c(CC(F)C34CCC(NCc5ccc6c(n5)NC(=O)CO6)(CC3)CO4)c2n1 (racemic)	–	–	–	1 (≈ 1.95 µM)	8 (≈ 15.6 µM)	0.25 (≈ 0.489 µM)	8 (≈ 15.6 µM)	8 (≈ 15.6 µM)	8 (≈ 15.6 µM)	–	0.25 (≈ 0.489 µM)	–
COc1ccc2ncc(F)c(C(CC34CCC(NCc5ccc6c(n5)NC(=O)CO6)(CC3)CO4)C(=O)O)c2n1 (racemic)	–	–	<4	4 (≈ 7.44 µM)	32 (≈ 59.5 µM)	1 (≈ 1.86 µM)	32 (≈ 59.5 µM)	32 (≈ 59.5 µM)	32 (≈ 59.5 µM)	1000	1 (≈ 1.86 µM)	–
COc1ccc2ncc(F)c(CC(NS(C)(=O)=O)C34CCC(NCc5ccc6c(n5)NC(=O)CO6)(CC3)CO4)c2n1 (racemic)	–	–	–	32 (≈ 54.5 µM)	32 (≈ 54.5 µM)	32 (≈ 54.5 µM)	32 (≈ 54.5 µM)	32 (≈ 54.5 µM)	32 (≈ 54.5 µM)	–	32 (≈ 54.5 µM)	–
CCOC(=O)C(CC12CCC(NCc3ccc4c(n3)NC(=O)CO4)(CC1)CO2)c1c(F)cnc2ccc(OC)nc12 (racemic)	–	–	–	8 (≈ 14.1 µM)	32 (≈ 56.6 µM)	2 (≈ 3.54 µM)	32 (≈ 56.6 µM)	32 (≈ 56.6 µM)	32 (≈ 56.6 µM)	–	2 (≈ 3.54 µM)	–
COc1ccc2ncc(F)c(CC(NOC(C)=O)C34CCC(NCc5ccc6c(n5)NC(=O)CO6)(CC3)CO4)c2n1 (racemic)	–	–	–	16 (≈ 28.2 µM)	32 (≈ 56.5 µM)	2 (≈ 3.53 µM)	32 (≈ 56.5 µM)	32 (≈ 56.5 µM)	32 (≈ 56.5 µM)	–	2 (≈ 3.53 µM)	–
COc1ccc2ncc(F)c(CC(OCCO)C34CCC(NCc5ccc6c(n5)NC(=O)CO6)(CC3)CO4)c2n1 (racemic)	–	–	–	8 (≈ 14.5 µM)	32 (≈ 57.8 µM)	2 (≈ 3.61 µM)	32 (≈ 57.8 µM)	32 (≈ 57.8 µM)	32 (≈ 57.8 µM)	–	2 (≈ 3.61 µM)	–
